Measurements published in paper PMC8426472 (Molecular Therapy. Methods & Clinical Development, 2021).

Legend:
ORM1F2 = details: cited from earlier work
ORM1F1 = details: cited from earlier work
[1] = cited from earlier work
ORM1S = details: cited from earlier work
GS-GDNF vector = experiment: Striatal GDNF induction from AAV-5-GS-GDNF vector after Mfp application; type: in vivo, rat
[2] = cited from earlier work; remark: listed apart in the source
[3] = Plasma Mfp levels in rats; type: in vivo, rat
[4] = Plasma Mfp levels in cynomolgus monkeys; type: in vivo, cynomolgus macaques (Macaca fascicularis)
[5] = Plasma Mfp levels in hAAG-expressing; type: in vivo, rat
[6] = Brain Mfp levels in cynomolgus monkeys; type: in vivo, cynomolgus macaques (Macaca fascicularis); details: monkey #1 versus monkeys #2 and #3, repeated oral Rtv 60 mg/kg + Mfp 100 mg/kg
[7] = cited from earlier work; remark: listed apart in the source
[8] = Brain tissue Mfp levels in rats; type: in vivo, rat; details: 3 × 20 mg/kg i.p., t = 144 h
[9] = cited from earlier work; remark: listed apart in the source
[10] = system: ORM2-derived AAG variants; details: cited from earlier work
[11] = cited from earlier work; remark: listed apart in the source

For `CC#C[C@]1(O)CC[C@H]2[C@@H]3CCC4=CC(=O)CCC4=C3[C@@H](c3ccc(N(C)C)cc3)C[C@@]21C` [Mfp, mifepristone], which “binding of Mfp by ORM1F2” value (ORM1F2) is on record?
Its value is “only low affinity”.

What about the “binding of Mfp by ORM1F1” value (ORM1F1) of the same compound?
Its value is “high affinity”.

What about the bioavailability in rats [1] of the same compound?
The bioavailability in rats was 40%.

What about the clearance in rats [1] of the same compound?
Its clearance in rats is 2.7 L/h/kg body weight.

What about the “plasma half-life (T1/2) in rats” value [1] of the same compound?
The value was 4 h.

What about the “binding of Mfp by ORM1S” value (ORM1S) of the same compound?
The value was “high affinity”.

What about the “effect of hAAG on GS-GDNF activation at lower dosage” value (GS-GDNF vector; 3 × 5 mg/kg Mfp i.p., hAAG-expressing vs native rats) of the same compound?
Its value is “no negative effect”.

And the “striatal GDNF levels in hAAG-expressing vs native animals” value (GS-GDNF vector; 3 × 20 mg/kg Mfp i.p.)?
Its value is “similar”.

What about the “induced GDNF levels in aged (15 months) as compared to young (2 months) animals” value (GS-GDNF vector; female and male rats, 3 × 20 mg/kg Mfp i.p.) of the same compound?
Its value is 7–8 times.

And the “striatal GDNF level, only Mfp, females” value (GS-GDNF vector; female rats, 3 x 5 mg/kg Mfp i.p., no Rtv)?
Its value is “about 350 pg/mg”.

What about the “striatal GDNF level without Rtv co-application” value (GS-GDNF vector; female rats, 3 x 20 mg/kg Mfp i.p.) of the same compound?
The value was “about 2,000 pg/mg tissue”.

And the “striatal GDNF level after co-application of Rtv” value (GS-GDNF vector; female rats, 3 x 20 mg/kg Mfp i.p., Rtv 30 mg/kg i.p. or orally)?
Its value is “about 4,000 pg/mg tissue”.

What about the “GDNF levels obtained with different solvent/carrier” value (GS-GDNF vector; female rats, oral 3 x 50 mg/kg pure substance in EtOH, sesame oil or ASV) of the same compound?
The value was “very similar”.

What about the “striatal GDNF level, Mfp + Rtv” value (GS-GDNF vector; male and female rats, 3 x 5 mg/kg Mfp i.p. + Rtv 30 mg/kg i.p.) of the same compound?
Its value is “about 4,000 pg/mg tissue”.

And the “striatal GDNF level, only Mfp, males” value (GS-GDNF vector; male rats, 3 x 5 mg/kg Mfp i.p., no Rtv)?
The value was “about 100 pg/mg”.

And the solubility in water [2]?
The solubility in water was “very low”.

And the AUC ([3]; female, Wistar, rat, plasma, ip, AUC for plasma Mfp, − Rtv, female rats, 3 x 5 mg/kg Mfp i.p., without Rtv)?
The AUC was 8200 ng·h/mL.

What about the “drop of plasma Mfp levels at 48 h, native rats” value ([3]; native rats, single oral dose 50 mg/kg) of the same compound?
The value was “over 80%”.

And the peak plasma levels ([3]; rats, 3 × 5 mg/kg Mfp i.p.)?
The peak plasma levels was “about 150 ng/mL”.

What about the “peak plasma levels, corresponding molar concentration” value ([3]; rats, 3 × 5 mg/kg Mfp i.p.) of the same compound?
The value was “about 0.3 μM”.

What about the “peak plasma Mfp level without Rtv” value ([4]; male cynomolgus monkeys, single oral 50 mg/kg Mfp) of the same compound?
The value was 55 ng/mL.

What about the “peak plasma Mfp level with Rtv co-application” value ([4]; male cynomolgus monkeys, single oral 50 mg/kg Mfp + 30 mg/kg Rtv) of the same compound?
The value was 150 ng/mL.

What about the AUC ([4]; male, cynomolgus monkey, plasma, po, 50 mg/kg) of the same compound?
Its AUC is 655 ng·h/mL.

What about the “plasma Mfp levels on all 3 days” value ([4]; monkeys #2 and #3, oral Mfp 100 mg/kg + Rtv 60 mg/kg on 3 consecutive days) of the same compound?
The value was “exceeding 500 ng/mL”.

And the “plasma Mfp levels in hAAG-expressing vs native animals at 50 h and 72 h” value ([5]; 3 × 20 mg/kg Mfp i.p.)?
The value was “significantly elevated”.

And the “plasma Mfp level at 48 h, hAAG-expressing rats” value ([5]; single oral dose 50 mg/kg)?
The value was “still at maximum level”.

And the “plasma Mfp level at 72 h, hAAG-expressing rats” value ([5]; single oral dose 50 mg/kg)?
Its value is “about one-third of maximum levels”.

And the “difference in brain Mfp levels after the same dosage” value [6]?
The value was 6- to 7 fold.

And the bioavailability in monkeys [7]?
Its bioavailability in monkeys is 15%.

What about the “Mfp levels in brain tissue, native vs hAAG-expressing animals” value [8] of the same compound?
Its value is “equal”.

What about the bioavailability in humans [9] of the same compound?
The bioavailability in humans was 40%.

What about the clearance in human [9] of the same compound?
The clearance in human was 0.04 L/h/kg body weight.

And the “plasma half-life (T1/2) in human” value [9]?
Its value is 30 h.

And the “binding of Mfp by ORM2-derived AAG variants” value [10]?
Its value is “only weakly”.

Which results are given for `CC(C)c1nc(CN(C)C(=O)N[C@H](C(=O)N[C@@H](Cc2ccccc2)C[C@H](O)[C@H](Cc2ccccc2)NC(=O)OCc2cncs2)C(C)C)cs1` [Rtv, ritonavir]?
metabolic effects: insulin resistance [11]: moderate increase; boost of GDNF induction by Rtv, female rats (GS-GDNF vector; female rats, Rtv 30 mg/kg i.p. + 3 x 5 mg/kg Mfp i.p.): about 10 fold; boost of GDNF induction by Rtv, male rats (GS-GDNF vector; male rats, Rtv 30 mg/kg i.p. + 3 x 5 mg/kg Mfp i.p.): about 40 fold
